# Data published in patent publication US11111230B2 (ADLAI NORTYE BIOPHARMA CO., LTD., priority 2017, dated 2021).
# Assays:
# Hela cells = assay: Activity in Hela cells (interferon-γ induced, kynurenine readout with Ehrlich's reagent); format: cell-based; details: Homo sapiens, interferon-γ 50 ng/mL, tryptophan 16 mg/L, 48 hours, absorption at 480 nm
# Experimental: Example 1: Study on the Activity of the Compound of the Present Invention in Hela Cells
# Hela cells were seeded in 96-well culture plates and incubated at 37° C., 100% relative humidity, 5% CO2 incubator for 24 hours. The compound was dissolved in DMSO and diluted to an appropriate concentration, and then the compound was diluted 100-fold with DMEM medium containing interferon-γ and 10% fetal bovine serum to the final concentration of effect. Aspirate the old medium from the 96-well plate and add 200 μL of each medium containing compound and interferon-γ from the previous step. The content of tryptophan in the medium is 16 mg/L, and the concentration of interferon-γ is 50 ng/mL. The cells were placed in a 37° C., 100% relative humidity, and 5% CO2 incubator for 48 hours, then 140 μL of the cell culture supernatant was mixed with 15 μL of trichloroacetic acid, and placed at 52° C. for 30 min, then centrifuged at room temperature to take the centrifugal supernatant. Mix with an equal volume of Ehrlich's reagent, measure the light absorption at 480 nm, and calculate the IC50 values.
# human IDO1 protein = molecular target: T1, human IDO1 protein (Homo sapiens, UniProt P14902); assay: Activity in HEK293 cells highly expressing human IDO1 protein; format: cell-based; details: HEK293-IDO cells, tryptophan 16 mg/L, 24 hours, absorption at 480 nm; read-out: IC50 (HEK293 cell)
# T1 construct: expressed in transfected cells; host or cells: HEK293
# T1 sequence (P14902 whole entry): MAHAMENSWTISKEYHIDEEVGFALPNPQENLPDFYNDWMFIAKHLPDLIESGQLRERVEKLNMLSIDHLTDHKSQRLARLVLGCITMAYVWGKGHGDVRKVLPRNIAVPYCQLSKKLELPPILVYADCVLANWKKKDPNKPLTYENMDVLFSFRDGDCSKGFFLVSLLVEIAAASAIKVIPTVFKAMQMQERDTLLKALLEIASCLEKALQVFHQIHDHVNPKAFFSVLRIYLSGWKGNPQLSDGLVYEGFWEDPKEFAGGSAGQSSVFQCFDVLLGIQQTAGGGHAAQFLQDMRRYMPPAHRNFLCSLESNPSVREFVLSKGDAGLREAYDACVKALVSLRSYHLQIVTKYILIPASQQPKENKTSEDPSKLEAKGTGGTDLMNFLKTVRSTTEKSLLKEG
# Experimental: Example 2: Study on the Activity of the Present Invention in HEK293 Cells Highly Expressing Human IDO1 Protein
# HEK293-IDO cells with high expression of human IDO1 protein were prepared by electrotransformation, and the cells were seeded in 96-well culture plates, and cultured at 37° C., 100% relative humidity, and 5% CO2 incubator for 24 hours. Dissolve in DMSO and dilute to the appropriate concentration, then use DMEM medium containing 10% fetal bovine serum to dilute the candidate 100-fold to the final concentration. Aspirate the old medium from the 96-well plate and add 200 μL of the medium contained in the previous step to each well. The content of tryptophan in the medium is 16 mg/L. The cells were placed in a 37° C., 100% relative humidity, and 5% CO2 incubator for 24 hours. 140 μL of the cell culture supernatant was mixed with 15 μL of trichloroacetic acid and placed at 52° C. for 30 min. Mix with an equal volume of Ehrlich's reagent, measure the light absorption at 480 nm, and calculate the IC50 values.
Structure (SMILES),IC50 (Hela cells) [nM],IC50 (human IDO1 protein) [nM]
"O=C(Nc1ccc(Cl)s1)C1CC12CCC(c1ccnc3ccc(F)cc13)CC2 (stereo not drawn) [Compound 13, N-(5-chlorothiophen-2-yl)-6-(6-fluoroquinolin-4-yl)spiro[2.5]octane-1-carboxamide]",10 to 100,10 to 100
"COCCOc1ccc(NC(=O)C2CC23CCC(c2ccnc4cc(C)c(F)cc24)CC3)cc1 (stereo not drawn) [Compound 94, 6-(6-fluoro-7-methylquinolin-4-yl)-N-(4-(2-methoxyethoxy)phenyl)spiro[2.5]octane-1-carboxamide]",0.1 to 10,10 to 100
"Cc1cc2nccc(C3CCC4(CC3)CC4C(=O)Nc3ccc(Cl)nc3)c2cc1F (stereo not drawn) [Compound 95, N-(6-chloropyridin-3-yl)-6-(6-fluoro-7-methylquinolin-4-yl)spiro[2.5]octane-1-carboxamide]",0.1 to 10,10 to 100
Cc1cc2nccc(C3CCC4(CC3)CC4C(=O)Nc3cncc(Cl)c3)c2cc1F (stereo not drawn) [Compound 96],10 to 100,> 100
Cc1cc2nccc(C3CCC4(CC3)CC4C(=O)Nc3ccnc(Cl)c3)c2cc1F (stereo not drawn) [Compound 97],> 100,> 100
"O=C(Nc1ccc(Cl)cc1)C1CC12CCC(c1ccnc3cc(F)c(F)cc13)CC2 (stereo not drawn) [Compound 100, N-(4-chlorophenyl)-6-(6,7-difluoroquinolin-4-yl)spiro[2.5]octane-1-carboxamide]",0.1 to 10,10 to 100
COc1cc2nccc(C3CCC4(CC3)CC4C(=O)Nc3ccc(Cl)cc3)c2cc1OC (stereo not drawn) [Compound 101],0.1 to 10,10 to 100
"N#Cc1cc2nccc(C3CCC4(CC3)CC4C(=O)Nc3ccc(Cl)cc3)c2cc1F (stereo not drawn) [Compound 102, N-(4-chlorophenyl)-6-(7-cyano-6-fluoroquinolin-4-yl)spiro[2.5]octane-1-carboxamide]",0.1 to 10,10 to 100

# The remaining lines, values ahead:
IC50 (Hela cells) [nM],IC50 (human IDO1 protein) [nM],Structure (SMILES)
> 100,> 100,"O=C(Nc1ccc(Cl)cc1)C1CC12CCC(c1ccnc3cc4c(cc13)OCCO4)CC2 (stereo not drawn) [Compound 103, N-(4-chlorophenyl)-6-(2,3-dihydro-[1,4]dioxino[2,3-g]quinolin-9-yl)spiro[2.5]octane-1-carborboxamide]"
> 100,> 100,"O=C(Nc1ccc(Cl)cc1)C1CC12CCC(O)(c1ccnc3ccc(F)cc13)CC2 (stereo not drawn) [Compound 104, N-(4-chlorophenyl)-6-(6-fluoroquinolin-4-yl)-6-hydroxyspiro[2.5]octane-1-carboxamide]"
10 to 100,0.1 to 10,"COc1cc2nccc(C3CCC4(CC3)CC4C(=O)Nc3ccc(Cl)cc3)c2cc1F (stereo not drawn) [Compound 105, N-(4-chlorophenyl)-6-(6-fluoro-7-methoxyquinolin-4-yl)spiro[2.5]octane-1-carboxamide]"
> 100,> 100,"CC1(C(=O)Nc2ccc(Cl)cc2)CC12CCC(c1ccnc3ccc(F)cc13)CC2 (stereo not drawn) [Compound 106, N-(4-chlorophenyl)-6-(6-fluoroquinolin-4-yl)-1-methylspiro[2.5]octane-1-carboxamide]"
> 100,> 100,"N#CC1(C(=O)Nc2ccc(Cl)cc2)CC12CCC(c1ccnc3ccc(F)cc13)CC2 (stereo not drawn) [Compound 107, N-(4-chlorophenyl)-1-cyano-6-(6-fluoroquinolin-4-yl)spiro[2.5]octane-1-carboxamide]"
10 to 100,> 100,"O=C(Nc1ccc(Cl)cc1)C1CC12CCC(c1ccnc3cc4c(cc13)OCO4)CC2 (stereo not drawn) [Compound 110, 6-([1,3]dioxolo[4,5-g]quinolin-8-yl)-N-(4-chlorophenyl)spiro[2.5]octane-1-carboxamide]"
> 100,> 100,"COC(=O)COc1ccc(NC(=O)C2CC23CCC(c2ccnc4cc(C)c(F)cc24)CC3)cc1 (stereo not drawn) [Compound 111, Methyl 2-(4-(6-(6-fluoro-7-methylquinolin-4-yl)spiro[2.5]octane-1-carboxamido)phenoxy)acetate]"
10 to 100,> 100,"Cc1cc2nccc(C3CCC4(CC3)CC4C(=O)Nc3ccc(OCCO)cc3)c2cc1F (stereo not drawn) [Compound 112, 6-(6-fluoro-7-methylquinolin-4-yl)-N-(4-(2-hydroxyethoxy)phenyl)spiro[2.5]octane-1-carboxamide]"
0.1 to 10,10 to 100,"COCCOc1ccc(NC(=O)C2CC23CCC(c2ccnc4cc(OC)c(OC)cc24)CC3)cc1 (stereo not drawn) [Compound 113, 6-(6,7-dimethoxyquinolin-4-yl)-N-(4-(2-methoxyethoxy)phenyl)spiro[2.5]octane-1-carboxamide]"
0.1 to 10,10 to 100,"O=C(Nc1ccc(Cl)cc1)C1CC12CCC(c1ccnc3cc(CO)c(F)cc13)CC2 (stereo not drawn) [Compound 114, N-(4-chlorophenyl)-6-(6-fluoro-7-(hydroxymethyl)quinolin-4-yl)spiro[2.5]octane-1-carboxamide]"
